From patent US9737542B2, “Pyrrolotriazine kinase inhibitors” (BRISTOL-MYERS SQUIBB COMPANY, priority 2013, dated 2017) come the findings set out here.

The structures appear in SMILES notation.

The test addresses GST-Xa-hAAK1 (Homo sapiens (Human), UniProt Q2M2I8). Briefly: AAK1 Kinase Assay. The class given is biochemical. The conditions noted are these: ATP 22 μM, 3 hours at room temperature.

GST-Xa-hAAK1, sequence (Q2M2I8 whole entry): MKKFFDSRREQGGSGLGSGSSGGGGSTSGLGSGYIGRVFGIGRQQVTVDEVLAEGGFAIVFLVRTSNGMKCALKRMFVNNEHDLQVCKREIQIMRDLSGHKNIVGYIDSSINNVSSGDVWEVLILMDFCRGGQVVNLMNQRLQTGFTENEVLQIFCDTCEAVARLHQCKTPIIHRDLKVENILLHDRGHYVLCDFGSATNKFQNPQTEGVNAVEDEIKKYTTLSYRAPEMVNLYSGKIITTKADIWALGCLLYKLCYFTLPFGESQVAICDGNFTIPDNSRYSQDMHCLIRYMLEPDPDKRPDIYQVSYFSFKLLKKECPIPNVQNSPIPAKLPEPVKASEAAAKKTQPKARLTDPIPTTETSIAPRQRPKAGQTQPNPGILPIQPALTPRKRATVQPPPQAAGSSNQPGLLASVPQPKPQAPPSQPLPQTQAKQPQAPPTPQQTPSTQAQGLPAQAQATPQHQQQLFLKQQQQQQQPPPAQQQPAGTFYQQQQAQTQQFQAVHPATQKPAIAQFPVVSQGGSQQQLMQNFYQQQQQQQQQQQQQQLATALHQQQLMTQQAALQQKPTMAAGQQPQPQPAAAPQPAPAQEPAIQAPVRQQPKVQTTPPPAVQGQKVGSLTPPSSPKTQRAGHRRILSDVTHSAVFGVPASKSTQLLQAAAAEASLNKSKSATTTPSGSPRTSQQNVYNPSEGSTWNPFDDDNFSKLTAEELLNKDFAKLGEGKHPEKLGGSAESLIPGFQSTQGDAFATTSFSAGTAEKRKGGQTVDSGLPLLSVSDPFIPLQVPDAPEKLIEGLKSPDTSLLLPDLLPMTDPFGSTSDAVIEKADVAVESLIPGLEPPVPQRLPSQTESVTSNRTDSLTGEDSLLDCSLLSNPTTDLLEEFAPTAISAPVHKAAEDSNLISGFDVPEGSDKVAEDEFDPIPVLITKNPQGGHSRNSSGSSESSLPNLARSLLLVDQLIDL
Procedure: The assays were performed in U-bottom 384-well plates. […] The reactions were initiated by the combination of bacterially expressed, GST-Xa-hAAK1 with substrates and test compounds. The reactions were incubated at room temperature for 3 hours and terminated by adding 60 μl of 35 mM EDTA buffer to each sample. The reactions were analyzed on the Caliper LabChip 3000 (Caliper, Hopkinton, Mass.) by electrophoretic separation of the fluorescent substrate and phosphorylated product. Inhibition data were calculated by comparison to EDTA quenched control reactions for 100% inhibition and vehicle-only reactions for 0% inhibition. […] Dose response curves were generated to determine the concentration required inhibiting 50% of kinase activity (IC50). Compounds were dissolved at 10 mM in dimethylsulfoxide (DMSO) and evaluated at eleven concentrations. IC50 values were derived by non-linear regression analysis.

In the case of `CC(C)c1nc(-c2cc(O)cc(Nc3ncnn4ccc(CN5CCC(N)CC5)c34)c2)no1` [Example 37, 3-((5-((4-aminopiperidin-1-yl)methyl)pyrrolo[2,1-f][1,2,4]triazin-4-yl)amino)-5-(5-isopropyl-1,2,4-oxadiazol-3-yl)phenol], where the note is “listed as IC50 ranges”, the IC50 – broadly, the concentration at which inhibition is half-maximal – was 1 to 10 nM.
As for `CC(C)n1nnc(-c2ccc(O)c(Nc3ncnn4ccc(CN5CCC(N)CC5)c34)c2)n1` [Example 38, 2-((5-((4-aminopiperidin-1-yl)methyl)pyrrolo[2,1-f][1,2,4]triazin-4-yl)amino)-4-(2-isopropyl-2H-tetrazol-5-yl)phenol], under “listed as IC50 ranges”, the IC50 lay in the range of 1 to 10 nM.
As to `CNC1CCN(Cc2ccn3ncnc(Nc4cccc(-c5noc(C(C)C)n5)c4)c23)CC1` [Example 39, N-(3-(5-isopropyl-1,2,4-oxadiazol-3-yl)phenyl)-5-((4-(methylamino)piperidin-1-yl)methyl)pyrrolo[2,1-f][1,2,4]triazin-4-amine], where the note is “listed as IC50 ranges”, the IC50 lay within 10 to 100 nM.
Consider `CNC1CCN(Cc2ccn3ncnc(Nc4cccc(-c5nnc(C(C)C)o5)c4)c23)CC1` [Example 40, N-(3-(5-isopropyl-1,3,4-oxadiazol-2-yl)phenyl)-5-((4-(methylamino)piperidin-1-yl)methyl)pyrrolo[2,1-f][1,2,4]triazin-4-amine], for which the IC50 (listed as IC50 ranges) fell in the range of 10 to 100 nM.
`CNC1CCN(Cc2ccn3ncnc(Nc4cccc(-c5noc(C(C)(C)C)n5)c4)c23)CC1` [Example 41, N-(3-(5-(tert-butyl)-1,2,4-oxadiazol-3-yl)phenyl)-5-((4-(methylamino)piperidin-1-yl)methyl)pyrrolo[2,1-f][1,2,4]triazin-4-amine] yielded an IC50 (listed as IC50 ranges) of 10 to 100 nM.
The compound `CNC1CCN(Cc2ccn3ncnc(Nc4cccc(-c5nnn(C(C)C)n5)c4)c23)CC1` [Example 42, N-(3-(2-isopropyl-2H-tetrazol-5-yl)phenyl)-5-((4-(methylamino)piperidin-1-yl)methyl)pyrrolo[2,1-f][1,2,4]triazin-4-amine] returned an IC50 (listed as IC50 ranges) of 10 to 100 nM.
`CC(C)c1nc(-c2ccc(Cl)c(Nc3ncnn4ccc(CN5CCC(N)CC5)c34)c2)no1` [Example 43, 5-((4-aminopiperidin-1-yl)methyl)-N-(2-chloro-5-(5-isopropyl-1,2,4-oxadiazol-3-yl)phenyl)pyrrolo[2,1-f][1,2,4]triazin-4-amine] gave an IC50 of 265 nM.
`CNC1CCN(Cc2ccn3ncnc(Nc4cc(F)cc(-c5noc(C(C)C)n5)c4)c23)CC1` [Example 44, N-(3-fluoro-5-(5-isopropyl-1,2,4-oxadiazol-3-yl)phenyl)-5-((4-(methylamino)piperidin-1-yl)methyl)pyrrolo[2,1-f][1,2,4]triazin-4-amine] had an IC50 of 10 nM.
For the compound `CC(C)c1nc(-c2cc(Cl)cc(Nc3ncnn4ccc(CN5CCC(N)CC5)c34)c2)no1` [Example 45, 5-((4-aminopiperidin-1-yl)methyl)-N-(3-chloro-5-(5-isopropyl-1,2,4-oxadiazol-3-yl)phenyl)pyrrolo[2,1-f][1,2,4]triazin-4-amine], for the setting “listed as IC50 ranges”, the IC50 was in the range of 10 to 100 nM.
The same measure, in the same setting: next, `CC(C)c1nc(-c2cc(F)cc(Nc3ncnn4ccc(CN5CCC(N)CC5)c34)c2)no1` [Example 46, 5-((4-aminopiperidin-1-yl)methyl)-N-(3-fluoro-5-(5-isopropyl-1,2,4-oxadiazol-3-yl)phenyl)pyrrolo[1,2-f][1,2,4]triazin-4-amine]: 10 to 100 nM.
Consider `NC1CCN(Cc2ccn3ncnc(Nc4cccc(-c5noc(C6CC6)n5)c4)c23)CC1` [Example 47, 5-((4-aminopiperidin-1-yl)methyl)-N-(3-(5-cyclopropyl-1,2,4-oxadiazol-3-yl)phenyl)pyrrolo[2,1-f][1,2,4]triazin-4-amine], for which the IC50 (listed as IC50 ranges) lay within 10 to 100 nM.
`CC(C)c1nnc(-c2cccc(Nc3ncnn4ccc(CN5CC[C@@H](N)[C@H](O)C5)c34)c2)s1` [Example 48, (3R,4R)-4-amino-1-((4-((3-(5-isopropyl-1,3,4-thiadiazol-2-yl)phenyl)amino)pyrrolo[2,1-f][1,2,4]triazin-5-yl)methyl)piperidin-3-ol] displayed an IC50 (listed as IC50 ranges) of 10 to 100 nM.
For the compound `CC(C)n1nnc(-c2cc(Nc3ncnn4ccc(CN5CCC(N)CC5)c34)ccc2F)n1` [Example 49, 5-((4-aminopiperidin-1-yl)methyl)-N-(4-fluoro-3-(2-isopropyl-2H-tetrazol-5-yl)phenyl)pyrrolo[2,1-f][1,2,4]triazin-4-amine], half-maximal inhibition (IC50) was put at 21 nM.
On to `CC(C)n1nnc(-c2ccc(F)c(Nc3ncnn4ccc(CN5CCC(N)CC5)c34)c2)n1` [Example 50, 5-((4-aminopiperidin-1-yl)methyl)-N-(2-fluoro-5-(2-isopropyl-2H-tetrazol-5-yl)phenyl)pyrrolo[2,1-f][1,2,4]triazin-4-amine], for which the IC50 (listed as IC50 ranges) is 100 to 1000 nM.
The same measure, in the same setting: next, `CC(C)n1nnc(-c2cc(F)cc(Nc3ncnn4ccc(CN5CCC(N)CC5)c34)c2)n1` [Example 51, 5-((4-aminopiperidin-1-yl)methyl)-N-(3-fluoro-5-(2-isopropyl-2H-tetrazol-5-yl)phenyl)pyrrolo[2,1-f][1,2,4]triazin-4-amine]: 1 to 10 nM; `CC(C)c1nc(-c2ccc(F)c(Nc3ncnn4ccc(CN5CCC(N)CC5)c34)c2)no1` [Example 52, 5-((4-aminopiperidin-1-yl)methyl)-N-(2-fluoro-5-(5-isopropyl-1,2,4-oxadiazol-3-yl)phenyl)pyrrolo[2,1-f][1,2,4]triazin-4-amine]: 100 to 1000 nM.
`CC(=O)NC1CCN(Cc2ccn3ncnc(Nc4cccc(-c5nnc(C(C)C)s5)c4)c23)CC1` [Example 53, N-(1-((4-((3-(5-isopropyl-1,3,4-thiadiazol-2-yl)phenyl)amino)pyrrolo[2,1-f][1,2,4]triazin-5-yl)methyl)piperidin-4-yl)acetamide]: the IC50 (listed as IC50 ranges) was in the range of 10 to 100 nM.
In turn, `CC(C)n1nnc(-c2cccc(Nc3ncnn4ccc(CN5CCN(C)CC5)c34)c2)n1` [Example 54, N-(3-(2-isopropyl-2H-tetrazol-5-yl)phenyl)-5-((4-methylpiperazin-1-yl)methyl)pyrrolo[2,1-f][1,2,4]triazin-4-amine] yielded an IC50 (listed as IC50 ranges) of 100 to 1000 nM.
As to `CC(C)c1nnc(-c2cccc(Nc3ncnn4ccc(CN5CCN(C)CC5)c34)c2)s1` [Example 55, N-(3-(5-isopropyl-1,3,4-thiadiazol-2-yl)phenyl)-5-((4-methylpiperazin-1-yl)methyl)pyrrolo[2,1-f][1,2,4]triazin-4-amine], the IC50 (listed as IC50 ranges) lay in the range of 100 to 1000 nM.
Where the note is “listed as IC50 ranges”, `CC(C)c1nnc(-c2cccc(Nc3ncnn4ccc(CN5CCOCC5)c34)c2)s1` [Example 56, N-(3-(5-isopropyl-1,3,4-thiadiazol-2-yl)phenyl)-5-(morpholinomethyl)pyrrolo[2,1-f][1,2,4]triazin-4-amine] showed a concentration for half-maximal inhibition (IC50) of 1000 to 5000 nM.
Compound `CC(C)n1nnc(-c2cccc(Nc3ncnn4ccc(CN5CCOCC5)c34)c2)n1` [Example 57, N-(3-(2-isopropyl-2H-tetrazol-5-yl)phenyl)-5-(morpholinomethyl)pyrrolo[2,1-f][1,2,4]triazin-4-amine] gave an IC50 (listed as IC50 ranges) of 10 to 100 nM.
In turn, `CC(C)n1nnc(-c2cccc(Nc3ncnn4ccc(CNC5CC6CCC(C5)N6C)c34)c2)n1` (stereo not shown) [Example 58, N-(3-(2-isopropyl-2H-tetrazol-5-yl)phenyl)-5-((8-methyl-8-azabicyclo[3.2.1]octan-3-ylamino)methyl)pyrrolo[1,2-f][1,2,4]triazin-4-amine] registered an IC50 (listed as IC50 ranges) of 1000 to 5000 nM.
In the case of `CC(C)n1nnc(-c2cccc(Nc3ncnn4ccc(CN5[C@@H]6CC[C@H]5CC(O)C6)c34)c2)n1` (stereo partly drawn) [Example 59, (1R,5S)-8-((4-((3-(2-isopropyl-2H-tetrazol-5-yl)phenyl)amino)pyrrolo[2,1-f][1,2,4]triazin-5-yl)methyl)-8-azabicyclo[3.2.1]octan-3-ol], the IC50 is 128 nM.
The compound `CC(C)n1nnc(-c2cccc(Nc3ncnn4ccc(CN5[C@@H]6CC[C@H]5CN(C)C6)c34)c2)n1` [Example 60, N-(3-(2-isopropyl-2H-tetrazol-5-yl)phenyl)-5-(((1R,5S)-3-methyl-3,8-diazabicyclo[3.2.1]octan-8-yl)methyl)pyrrolo[2,1-f][1,2,4]triazin-4-amine] displayed an IC50 (listed as IC50 ranges) of 100 to 1000 nM.
Take `CC(C)n1nnc(-c2cccc(NCc3ccn4ncnc(Nc5cccc(-c6nnn(C(C)C)n6)c5)c34)c2)n1` [Example 61, N-(3-(2-isopropyl-2H-tetrazol-5-yl)phenyl)-5-(((3-(2-isopropyl-2H-tetrazol-5-yl)phenyl)amino)methyl)pyrrolo[2,1-f][1,2,4]triazin-4-amine]: half-maximal inhibition (IC50) was put at 2580 nM.
For `CC(C)Oc1cc(Nc2ncnn3ccc(CN4CCC(N)CC4)c23)cc(-c2nnn(C(C)C)n2)c1` [Example 62, 5-((4-aminopiperidin-1-yl)methyl)-N-(3-isopropoxy-5-(2-isopropyl-2H-tetrazol-5-yl)phenyl)pyrrolo[2,1-f][1,2,4]triazin-4-amine], where the note is “listed as IC50 ranges”, the IC50 lay within 100 to 1000 nM.
For the compound `CNCc1ccn2ncnc(Nc3cccc(-c4nnn(C(C)C)n4)c3)c12` [Example 63, N-(3-(2-isopropyl-2H-tetrazol-5-yl)phenyl)-5-((methylamino)methyl)pyrrolo[2,1-f][1,2,4]triazin-4-amine], the IC50 (listed as IC50 ranges) lay within 100 to 1000 nM.
On the same count and under the same terms, next, `CC(C)n1nnc(-c2cccc(Nc3ncnn4ccc(CN5CC(C#N)C5)c34)c2)n1` [Example 64, 1-((4-((3-(2-isopropyl-2H-tetrazol-5-yl)phenyl)amino)pyrrolo[2,1-f][1,2,4]triazin-5-yl)methyl)azetidine-3-carbonitrile]: 100 to 1000 nM.
`CC(C)n1nnc(-c2cccc(Nc3ncnn4ccc(CN5CCC(C#N)CC5)c34)c2)n1` [Example 65, 1-((4-((3-(2-isopropyl-2H-tetrazol-5-yl)phenyl)amino)pyrrolo[2,1-f][1,2,4]triazin-5-yl)methyl)piperidine-4-carbonitrile] yielded an IC50 of 72 nM.
As to `CC(C)n1nnc(-c2cccc(Nc3ncnn4ccc(CNCC#N)c34)c2)n1` [Example 66, 2-(((4-((3-(2-isopropyl-2H-tetrazol-5-yl)phenyl)amino)pyrrolo[2,1-f][1,2,4]triazin-5-yl)methyl)amino)acetonitrile], the IC50 turned out to be 1100 nM.
As to `CC(C)C[C@@H](N)C(=O)Nc1cccc(Nc2ncnn3ccc(CN4CCC(N)CC4)c23)c1` [Example 67, (R)-2-amino-N-(3-((5-((4-aminopiperidin-1-yl)methyl)pyrrolo[2,1-f][1,2,4]triazin-4-yl)amino)phenyl)-4-methylpentanamide], the IC50 (listed as IC50 ranges) lay within 100 to 1000 nM.
